Data from patent US10660959B2, “Formulations of a PI3K/mTOR-inhibitor for intravenous administration” (Pfizer Inc., priority 2014, dated 2020).
Values joined by “and” are separate entries in the source; they are usually repeats but may differ in a detail not shown here. Equal values may be shown once.

Columns and labels:
Type in all cases: physicochemical
[1] = Visual observation of solution clarity (light box per European Pharmacopoeia Method 2.9.20, black and white background, Tyndall beam)
Description: A clear solution is defined as a visually clear solution essentially free from any visible particulates that can be observed on a visual inspection. Generally, if any particulate matter is observed, the formulation is not suitable for intravenous administration and should not be utilised as occlusion of blood vessels may occur. Accordingly, in view of the qualitative nature of the visual test, the term “essentially free from any visible particulates” is usually applied when no visible particulate matter is observed.
The visual inspection can be conducted in accordance with the method defined in European Pharmacopoeia Method 2.9.20 entitled “Particulate contamination: visible particles”. […]
By this method the solution in the vial was visually inspected in a Verivide DCAC60 (trade mark) light cabinet using a light meter reading of 3250 lux against a matt black panel and a white panel.
At the end of the 5 day period the pH of each sample was measured and a visual observation of each sample was made using a light box as described in European Pharmacopoeia Method 2.9.20 (above), inspecting the samples against a black and a white background. […]
These samples were visually assessed made using a light box as described in European Pharmacopoeia Method 2.9.20 (above), inspecting the samples against a black and a white background. […] The pH was also measured. […]

[2] = pH measurement of aqueous formulation samples; conditions: for pH after dilution: roller bed overnight; for pH Check after 6 Days / pH Check after 48 hours: Investigation 5; for pH: Investigation 6, 15 hours
Experimental: (§1) At the end of the 5 day period the pH of each sample was measured and a visual observation of each sample was made using a light box as described in European Pharmacopoeia Method 2.9.20 (above), inspecting the samples against a black and a white background. The sample was also tested by illumination using a narrow (Tyndall) beam light source and then visually inspected from a direction perpendicular to the light beam in order to identify undissolved solid particles.
as §1, with “specified rolling” for “5 day”
as §1, with “These samples were visually assessed” for “At the end of the 5 day period the pH of each sample was measured and a visual observation of each sample was”, “particles. The pH was also measured.” for “particles.”
as §1, with “These samples were visually assessed” for “At the end of the 5 day period the pH of each sample was measured and a visual observation of each sample was made”, “particles. The pH was also measured.” for “particles.”
The diluted samples were placed on a roller bed overnight in order to reach equilibrium. The pH was also measured.
These samples were visually assessed using a light box as described in European Pharmacopoeia method 2.9.20 (above), inspecting the samples against a black and a white background. The sample was also tested by illumination using a narrow (Tyndall) beam light source and then visually inspected from a direction perpendicular to the light beam in order to identify undissolved solid particles. […] The pH was also measured.

[3] = Chemical and physical stability of crystalline free base on storage; conditions: crystalline form, 25° C. and 60% Relative Humidity
[4] = Water solubility of free base; conditions: for aqueous solution formulation at therapeutic dosage levels
[5] = Investigation 4, 3 mg/mL with 6.8 mole equivalents orthophosphoric acid (33.3 mM), roller bed room temperature ca. 19 hours, N = 1-3

Visual assessment [1, 5]: Clear
Visual assessment ([1]; Investigation 5, 3, 4 and 5 mg/mL in 33.3 mM acetic acid buffer pH 3.35, roller bed room temperature, 24 hour, 48 hour, 72 hour and 6 day periods): does not produce a clear solution
Final pH [2, 5]: 2.15 and 2.17
pH after dilution ([2]; Investigation 4, orthophosphoric acid samples diluted to 0.05 mg/mL): 3.47 and 3.48 and 3.49
pH after dilution ([2]; Investigation 4, orthophosphoric acid samples diluted to 0.1 mg/mL): 3.21 and 3.20
pH after dilution ([2]; Investigation 4, orthophosphoric acid samples diluted to 0.5 mg/mL): 2.64 and 2.63
pH Check after 6 Days ([2]; 3 mg/mL in 33.3 mM acetic acid): 3.99 and 3.95 and 3.96
pH Check after 48 hours ([2]; 3 mg/mL in 33.3 mM acetic acid): 3.89 and 3.90
pH Check after 6 Days ([2]; 4 mg/mL in 33.3 mM acetic acid): 4.03 and 4.04
pH Check after 48 hours ([2]; 4 mg/mL in 33.3 mM acetic acid): 3.94 and 3.95
pH Check after 6 Days ([2]; 5 mg/mL in 33.3 mM acetic acid): 4.18 and 4.19
pH Check after 48 hours ([2]; 5 mg/mL in 33.3 mM acetic acid): 3.99 and 4.00
pH ([2]; 3 mg/mL, ca. 6.8 mole equivalents orthophosphoric acid): 2.02 and 2.03 and 2.05
pH ([2]; 3.5 mg/mL, ca. 5.9 mole equivalents orthophosphoric acid): 2.09 and 2.07
chemically and physically stable (duration) [3]: up to 3 years
water solubility [4]: insufficiently water soluble
Compound: CN(C)C1CCN(C(=O)c2ccc(NC(=O)Nc3ccc(-c4nc(N5CCOCC5)nc(N5CCOCC5)n4)cc3)cc2)CC1 [1-(4-{[4-(Dimethylamino)piperidin-1-yl]carbonyl}phenyl)-3-[4-(4,6-dimorpholin-4-yl-1,3,5-triazin-2-yl)phenyl]urea]
